Data: ChEMBL document CHEMBL3045232, “Inhibition of photophosphorylation and electron transport chain in thylakoids by lasiodiplodin, a natural product from Botryosphaeria rhodina” (J Agric Food Chem, 2007)
Calls of active or inactive are those of the source. The rule behind the calls is not given here.

Key:
Spinacia oleracea [1] = experiment: Inhibition of ATP sythesis in freshly lysed Spinacia oleracea (spinach) chloroplasts; format: functional, organism-based
Spinacia oleracea [2] = experiment: In vitro inhibition of photophosphorylation in intact chloroplasts of Spinacia oleracea (spinach) leaves assessed as basal electron transport from water to methylviologen; format: functional
[3] = molecular target: T1, Chloroplast coupling factor 1 (Spinacia oleracea) (UniProt P00825+P06453+P69447+P06451+P05435+P31853+P06450+P11402+P00833); experiment: Inhibition of Mg2+ ATPase activity of coupling factor 1 in chloroplasts of Spinacia oleracea (spinach) leaves at 150 uM; format: protein-complex assay; conditions: values are per cent of control
Spinacia oleracea [4] = experiment: Inhibition of thylakoid electron transport chain in intact chloroplasts of Spinacia oleracea (spinach) leaves assessed as inhibition of uncoupled PS2 electron transport from water to SiM at 200 uM relative to control; conditions: values are per cent of control
[5] = molecular target: T1, Chloroplast coupling factor 1 (Spinacia oleracea); experiment: Inhibition of Ca2+ ATPase activity of coupling factor 1 in chloroplasts of Spinacia oleracea (spinach) leaves at 150 uM; format: protein-complex assay
Spinacia oleracea [6] = experiment: In vitro inhibition of photophosphorylation in intact chloroplasts of Spinacia oleracea (spinach) leaves assessed as inhibition of uncoupled electron transport from water to methylviologen at 300 uM; format: functional
[7] = molecular target: T1, Chloroplast coupling factor 1 (Spinacia oleracea); experiment: Inhibition of Mg2+ ATPase activity of coupling factor 1 in chloroplasts of Spinacia oleracea (spinach) leaves at 50 uM; format: protein-complex assay; conditions: values are per cent of control
Spinacia oleracea [8] = experiment: Inhibition of thylakoid electron transport chain in intact chloroplasts of Spinacia oleracea (spinach) leaves assessed as inhibition of uncoupled PS2 electron transport from water to SiM at 400 uM relative to control; conditions: values are per cent of control
[9] = molecular target: T1, Chloroplast coupling factor 1 (Spinacia oleracea); experiment: Inhibition of H+ ATPase activity of coupling factor 1 in chloroplasts of Spinacia oleracea (spinach) leaves at 200 uM; format: protein-complex assay
Spinacia oleracea [10] = experiment: Inhibition of thylakoid electron transport chain in intact chloroplasts of Spinacia oleracea (spinach) leaves assessed as inhibition of uncoupled PS2 electron transport from […] to DCPIP at 300 uM relative to control; conditions: values are per cent of control
Spinacia oleracea [11] = experiment: Inhibition of thylakoid electron transport chain in intact chloroplasts of Spinacia oleracea (spinach) leaves assessed as inhibition of uncoupled PS2 electron transport from […] to DCPIP at 100 uM relative to control; conditions: values are per cent of control
Spinacia oleracea [12] = experiment: Inhibition of thylakoid electron transport chain in intact chloroplasts of Spinacia oleracea (spinach) leaves assessed as inhibition of uncoupled PS2 electron transport from […] to DCPIP at 200 uM relative to control; conditions: values are per cent of control
[13] = molecular target: T1, Chloroplast coupling factor 1 (Spinacia oleracea); experiment: Inhibition of Ca2+ ATPase activity of coupling factor 1 in chloroplasts of Spinacia oleracea (spinach) leaves at 50 uM; format: protein-complex assay
[14] = molecular target: T1, Chloroplast coupling factor 1 (Spinacia oleracea); experiment: Inhibition of H+ ATPase activity of coupling factor 1 in chloroplasts of Spinacia oleracea (spinach) leaves at 150 uM; format: protein-complex assay
Spinacia oleracea [15] = experiment: Induction of Chlorophyll a fluorescence induction curve in freshly lysed chloroplasts of Spinacia oleracea (spinach) at 300 uM; format: functional, organism-based
Spinacia oleracea [16] = experiment: Inhibition of thylakoid electron transport chain in intact chloroplasts of Spinacia oleracea (spinach) leaves assessed as inhibition of uncoupled PS2 electron transport from water to SiM at 300 uM relative to control; conditions: values are per cent of control
[17] = molecular target: T1, Chloroplast coupling factor 1 (Spinacia oleracea); experiment: Inhibition of Mg2+ ATPase activity of coupling factor 1 in chloroplasts of Spinacia oleracea leaves at 25 uM; format: protein-complex assay; conditions: values are per cent of control
Spinacia oleracea [18] = experiment: In vitro inhibition of photophosphorylation in intact chloroplasts of Spinacia oleracea (spinach) leaves assessed as phosphorylating nonyclic electron transport from water to methylviologen; format: functional
[19] = molecular target: T1, Chloroplast coupling factor 1 (Spinacia oleracea); experiment: Inhibition of Ca2+ ATPase activity of coupling factor 1 in chloroplasts of Spinacia oleracea (spinach) leaves at 25 uM; format: protein-complex assay
Spinacia oleracea [20] = experiment: Induction of Chlorophyll a fluorescence induction curve in freshly lysed chloroplasts of Spinacia oleracea (spinach) at 10 uM; format: functional, organism-based
[21] = molecular target: T1, Chloroplast coupling factor 1 (Spinacia oleracea); experiment: Inhibition of H+ ATPase activity of coupling factor 1 in chloroplasts of Spinacia oleracea (spinach) leaves at 50 uM; format: protein-complex assay
Spinacia oleracea [22] = experiment: Inhibition of thylakoid electron transport chain in intact chloroplasts of Spinacia oleracea (spinach) leaves assessed as inhibition of uncoupled PS2 electron transport from water to SiM at 100 uM relative to control; conditions: values are per cent of control
Spinacia oleracea [23] = experiment: Inhibition of ATP sythesis in freshly lysed Spinacia oleracea (spinach) chloroplasts at 150 uM; format: functional, organism-based

## CC(C)[C@@H](C)/C=C/[C@@H](C)[C@H]1CC[C@H]2C3=CC=C4C[C@@H](O)CC[C@]4(C)[C@H]3CC[C@]12C
Spinacia oleracea [1]
  I50: inactive

## O=c1[nH]cnc2c1ncn2[C@@H]1O[C@H](CO)[C@@H](O)[C@H]1O
Spinacia oleracea [1]
  I50: inactive

## OCCc1ccc(O)cc1
Spinacia oleracea [1]
  I50: inactive

## COc1cc(O)cc2c1C(=O)O[C@@H](C)CCCCCCC2 [LASIODIPLODIN]
Spinacia oleracea [2]
  inhibition: Active
[3]
  residual activity: 49.4%
Spinacia oleracea [4]
  residual activity: 70%
[5]
  inhibition: 84.1%
Spinacia oleracea [6]
  inhibition: 100%
[7]
  residual activity: 54.5%
Spinacia oleracea [8]
  residual activity: 0%
[9]
  inhibition: 97.7%
Spinacia oleracea [10]
  residual activity: 27%
Spinacia oleracea [11]
  residual activity: 87%
Spinacia oleracea [12]
  residual activity: 75%
[13]
  inhibition: 87.5%
[14]
  inhibition: 98.5%
Spinacia oleracea [15]
  Activity: Active
Spinacia oleracea [16]
  residual activity: 40%
[17]
  residual activity: 62.3%
Spinacia oleracea [1]; read-out: I50
  IC50: 35.6 µM
Spinacia oleracea [18]
  inhibition: Active
[19]
  inhibition: 95.6%
Spinacia oleracea [20]
  Activity: Active
[21]
  inhibition: 95%
Spinacia oleracea [22]
  residual activity: 80%
Spinacia oleracea [23]
  inhibition: 100%
